# Reference: BindingDB's records for doi:10.1021/jm7010194 (Abbott Laboratories, 2007)
# Molecular target: T1, ATP-sensitive inward rectifier potassium channel 11 (Homo sapiens, UniProt Q14654)
# T1 sequence (Q14654 whole entry): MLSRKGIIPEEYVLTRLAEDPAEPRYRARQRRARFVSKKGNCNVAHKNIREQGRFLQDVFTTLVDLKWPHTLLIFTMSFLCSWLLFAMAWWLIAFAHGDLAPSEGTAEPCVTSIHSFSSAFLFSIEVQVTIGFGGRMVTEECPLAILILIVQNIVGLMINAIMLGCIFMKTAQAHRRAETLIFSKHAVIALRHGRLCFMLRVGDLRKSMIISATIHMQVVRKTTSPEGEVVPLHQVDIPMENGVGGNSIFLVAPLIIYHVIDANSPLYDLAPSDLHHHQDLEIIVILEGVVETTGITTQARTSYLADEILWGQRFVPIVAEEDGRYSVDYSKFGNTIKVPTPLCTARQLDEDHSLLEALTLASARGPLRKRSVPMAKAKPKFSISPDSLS
# Experiment: Channel opening activity at human bladder Kir6.2 channel containing SUR2B expressed in L cells by FLIPR assay
row,EC50 [µM],SMILES
1,0.339,CC(Cl)(Cl)[C@@H](NC(=O)c1ccc(Cl)cc1)N/C(=N/C#N)Nc1cccnc1
2,9.77,COc1ncccc1NC(=NC#N)NC(NC(=O)c1ccc(Cl)cc1)C(C)(Cl)Cl (stereo unspecified)
3,6.03,CC(Cl)(Cl)C(NC(=O)c1ccc(Cl)cc1)NC(=NC#N)Nc1cccnc1Cl (stereo unspecified)
4,4.57,CC(Cl)(Cl)C(NC(=O)c1cccs1)N/C(=N/C#N)Nc1ccc(F)nc1 (stereo unspecified)
5,1.7,Cc1cccc(C(=O)NC(N/C(=N/C#N)Nc2ccc(Cl)nc2)C(C)(Cl)Cl)c1 (stereo unspecified)
6,8.91,CC(Cl)(Cl)C(NC(=O)c1ccc(OC(F)(F)F)cc1)N/C(=N/C#N)Nc1ccc(F)nc1 (stereo unspecified)
7,3.71,CC(Cl)(Cl)C(NC(=O)c1cc(Cl)cc(Cl)c1)N/C(=N/C#N)Nc1ccc(C(F)(F)F)nc1 (stereo unspecified)
8,10.5,COc1ccc(N/C(=N\C#N)NC(NC(=O)c2ccc(Cl)cc2)C(C)(Cl)Cl)cn1 (stereo unspecified)
9,26.9,CC(Cl)(Cl)C(NC(=O)c1ccc(C(F)(F)F)cc1)N/C(=N/C#N)Nc1ccc(C(F)(F)F)nc1 (stereo unspecified)
10,0.759,Cc1cncc(N/C(=N\C#N)NC(NC(=O)c2ccc(Cl)cc2)C(C)(Cl)Cl)c1 (stereo unspecified)
11,3.8,Cc1ccc(C(=O)NC(N/C(=N/C#N)Nc2ccc(C(F)(F)F)nc2)C(C)(Cl)Cl)cc1 (stereo unspecified)
12,> 100,CC(Cl)(Cl)C(NC(=O)c1ccc(Br)cc1)N/C(=N/C#N)Nc1ccc(C(F)(F)F)nc1 (stereo unspecified)
13,9.55,Cc1nc(C(F)(F)F)ccc1N/C(=N\C#N)NC(NC(=O)c1ccc(Cl)cc1)C(C)(Cl)Cl (stereo unspecified)
14,4.27,Cc1ccc(C(=O)NC(N/C(=N/C#N)Nc2ccc(F)nc2)C(C)(Cl)Cl)cc1 (stereo unspecified)
15,1.29,CC(Cl)(Cl)C(NC(=O)c1cccs1)N/C(=N/C#N)Nc1cncc(Br)c1 (stereo unspecified)
16,12,CC(Cl)(Cl)C(NC(=O)c1ccc(Cl)cc1)N/C(=N/C#N)Nc1ccccc1F (stereo unspecified)
17,0.813,CC(Cl)(Cl)C(NC(=O)c1cc(Cl)cc(Cl)c1)N/C(=N/C#N)Nc1ccc(Cl)nc1 (stereo unspecified)
18,2.75,CC(Cl)(Cl)C(NC(=O)c1cccs1)N/C(=N/C#N)Nc1ccc(Cl)nc1 (stereo unspecified)
19,0.457,CC(Cl)(Cl)C(NC(=O)c1ccc(Cl)cc1)N/C(=N/C#N)Nc1ccc(Cl)nc1 (stereo unspecified)

row,EC50 [µM],SMILES
1,1.32,Cc1ccc(C(=O)NC(N/C(=N/C#N)Nc2cncc(Br)c2)C(C)(Cl)Cl)cc1 (stereo unspecified)
2,2.04,CC(Cl)(Cl)C(NC(=O)c1cc(Cl)cc(Cl)c1)N/C(=N/C#N)Nc1ccc(F)nc1 (stereo unspecified)
3,4.27,CC(Cl)(Cl)C(NC(=O)c1cc(F)cc(F)c1)N/C(=N/C#N)Nc1ccc(F)nc1 (stereo unspecified)
4,0.537,CC(Cl)(Cl)C(NC(=O)c1ccc(Br)cc1)N/C(=N/C#N)Nc1ccc(Cl)nc1 (stereo unspecified)
5,2.29,CC(Cl)(Cl)C(NC(=O)c1cccc(Cl)c1)N/C(=N/C#N)Nc1ccc(F)nc1 (stereo unspecified)
6,2.24,Cc1ccc(N/C(=N\C#N)NC(NC(=O)c2ccc(Cl)cc2)C(C)(Cl)Cl)cn1 (stereo unspecified)
7,5.37,CC(Cl)(Cl)C(NC(=O)c1cccc(F)c1)N/C(=N/C#N)Nc1ccc(Cl)nc1 (stereo unspecified)
8,1.18,CC(Cl)(Cl)C(NC(=O)c1cc(F)cc(F)c1)N/C(=N/C#N)Nc1ccc(C(F)(F)F)nc1 (stereo unspecified)
9,1.07,CC(Cl)(Cl)[C@@H](NC(=O)c1ccc(Cl)cc1)N/C(=N/C#N)Nc1ccc(Cl)nc1
10,2.09,CC(Cl)(Cl)C(NC(=O)c1ccc(F)cc1)N/C(=N/C#N)Nc1ccc(C(F)(F)F)nc1 (stereo unspecified)
11,8.91,COc1cc(OC)cc(C(=O)NC(N/C(=N/C#N)Nc2ccc(Cl)nc2)C(C)(Cl)Cl)c1 (stereo unspecified)
12,5.37,CC(Cl)(Cl)C(NC(=O)c1ccc(OC(F)(F)F)cc1)N/C(=N/C#N)Nc1ccc(Cl)nc1 (stereo unspecified)
13,1.74,CC(Cl)(Cl)C(NC(=O)c1cccs1)N/C(=N/C#N)Nc1ccc(C(F)(F)F)nc1 (stereo unspecified)
14,6.76,CC(Cl)(Cl)C(NC(=O)c1cccc(Cl)c1)N/C(=N/C#N)Nc1ccc(C(F)(F)F)nc1 (stereo unspecified)
15,0.646,CC(Cl)(Cl)C(NC(=O)c1ccc(Cl)cc1)N/C(=N/C#N)Nc1cncc(Br)c1 (stereo unspecified)
16,1.66,Cc1cccc(C(=O)NC(N/C(=N/C#N)Nc2cncc(Br)c2)C(C)(Cl)Cl)c1 (stereo unspecified)
17,0.891,CC(Cl)(Cl)C(NC(=O)c1ccc(I)cc1)N/C(=N/C#N)Nc1ccc(Cl)nc1 (stereo unspecified)
18,7.76,CC(Cl)(Cl)C(NC(=O)c1ccc(I)cc1)N/C(=N/C#N)Nc1ccc(C(F)(F)F)nc1 (stereo unspecified)
19,1.29,CC(Cl)(Cl)C(NC(=O)c1ccc(F)cc1)N/C(=N/C#N)Nc1ccc(Cl)nc1 (stereo unspecified)

row,EC50 [µM],SMILES
1,1.62,CC(Cl)(Cl)C(NC(=O)c1ccc(Cl)cc1)N/C(=N/C#N)Nc1ccc(C(F)(F)F)nc1 (stereo unspecified)
2,1.51,CC(Cl)(Cl)C(NC(=O)c1ccc(Cl)cc1)N/C(=N/C#N)Nc1ccc(F)nc1 (stereo unspecified)
3,0.912,Cc1ccc(C(=O)NC(N/C(=N/C#N)Nc2ccc(Cl)nc2)C(C)(Cl)Cl)cc1 (stereo unspecified)
4,2.04,CC(Cl)(Cl)C(NC(=O)c1ccccc1)N/C(=N/C#N)Nc1ccc(Cl)nc1 (stereo unspecified)
5,0.776,CC(Cl)(Cl)C(NC(=O)c1cccc(Cl)c1)N/C(=N/C#N)Nc1cncc(Br)c1 (stereo unspecified)
6,2.14,CC(Cl)(Cl)[C@H](NC(=O)c1ccc(Cl)cc1)N/C(=N/C#N)Nc1ccc(Cl)nc1
7,1.1,CC(Cl)(Cl)C(NC(=O)c1cc(F)cc(F)c1)N/C(=N/C#N)Nc1ccc(Cl)nc1 (stereo unspecified)
8,> 100,CC(Cl)(Cl)C(NC(=O)c1ccc(OC(F)(F)F)cc1)N/C(=N/C#N)Nc1cncc(Br)c1 (stereo unspecified)
9,0.955,CC(Cl)(Cl)C(NC(=O)c1ccc(F)cc1)N/C(=N/C#N)Nc1cncc(Br)c1 (stereo unspecified)
10,4.27,Cc1cccc(C(=O)NC(N/C(=N/C#N)Nc2ccc(F)nc2)C(C)(Cl)Cl)c1 (stereo unspecified)
11,2.63,CC(Cl)(Cl)C(NC(=O)c1cc(Cl)cc(Cl)c1)N/C(=N/C#N)Nc1cncc(Br)c1 (stereo unspecified)
12,5.01,CC(Cl)(Cl)C(NC(=O)c1ccc(C(F)(F)F)cc1)N/C(=N/C#N)Nc1ccc(Cl)nc1 (stereo unspecified)
13,6.61,COc1cnccc1C(=O)NC(N/C(=N/C#N)Nc1ccc(Cl)nc1)C(C)(Cl)Cl (stereo unspecified)
14,2.29,CC(Cl)(Cl)C(NC(=O)c1cccc(F)c1)N/C(=N/C#N)Nc1ccc(C(F)(F)F)nc1 (stereo unspecified)
15,1.1,CC(Cl)(Cl)C(NC(=O)c1cc(F)cc(F)c1)N/C(=N/C#N)Nc1cncc(Br)c1 (stereo unspecified)
16,2.57,Cc1cccc(C(=O)NC(N/C(=N/C#N)Nc2ccc(C(F)(F)F)nc2)C(C)(Cl)Cl)c1 (stereo unspecified)
17,1.66,CC(Cl)(Cl)C(NC(=O)c1cccc(Cl)c1)N/C(=N/C#N)Nc1ccc(Cl)nc1 (stereo unspecified)
18,11.7,CC(Cl)(Cl)C(NC(=O)c1ccc(F)cc1)N/C(=N/C#N)Nc1ccc(F)nc1 (stereo unspecified)
